Tests used:
[1] = system: lung cancer metastasis model; test: Optical imaging of carrier/drug distribution in lung cancer metastasis model; type: in vivo
Description: FIG. 9 is an optical microscope image of major organs 3 hours after injecting a lung disease drug delivery carrier according to one Example of the present disclosure and Comparative Example into a lung cancer metastasis model. A GFP filter image may identify the presence or absence of cancer and a location thereof by labeling cancer cells with GFP (green fluorescent protein).
FIG. 10 is an optical microscope image of a lung cancer metastasis model injected with a lung disease drug delivery carrier according to one Example of the present disclosure.
FIG. 18A is an image of photographing the locations of cancer tumor and the locations of an injected DOX-DPP (doxorubicin-loaded disc-shaped drug delivery carrier) in an animal model, and FIG. 18B illustrates comparison of the locations of cancer tumor in major organs and amounts of doxorubicin alone (free DOX) or DOX-DPP in major organs. In this regard, the scale bar in FIG. 18A means 5 mm, and the scale bar in FIG. 18B means 20 mm. In addition, the cancer is a cancer cell expressing a GFP green fluorescent protein.

[2] = system: C57BL/6 mice with lung cancer
[3] = in vivo; cited from earlier work
[4] = system: pulmonary fibrosis animal model; test: Bleomycin (BLM) pulmonary fibrosis model: histopathology, immunohistochemistry, micro-CT; type: in vivo; settings: FIG. 15A
Source text: FIG. 15A illustrates an effect of nintedanib-loaded PLGA disc particles according to one embodiment of the present disclosure, and FIGS. 15B to 15E illustrate experimental results according to each comparison group. […] FIGS. 15A to 15E illustrate results obtained by evaluating tissue morphology and degrees of inflammation and fibrosis through histopathological and immunohistochemical changes. Also, a scale bar in FIG. 15A is 100 μm. […] At this time, Nib is orally administered in the BLM and Nib administered group.

[5] = in vivo; cited from earlier work; remark: listed apart in the source

COc1cccc2c1C(=O)c1c(O)c3c(c(O)c1C2=O)C[C@@](O)(C(=O)CO)C[C@@H]3O[C@H]1C[C@H](N)[C@H](O)[C@H](C)O1 [Comparative Example 2, doxorubicin]
accumulation in major organs ([1]; 3 hours after injecting, lung cancer metastasis model, FIG. 9): accumulated in the liver and kidneys in addition to the lungs
distribution of drug in major organs ([1]; animal model with GFP-expressing cancer, FIGS. 18A, 18B): the drug is distributed even in major organs
metastatic tumor nodules in lung ([2]; FIG. 19B): more metastatic tumor nodules appeared
cardiac toxicity ([2]; long-period administration): cardiac toxicity appears
inflammation in heart and kidney ([2]; organ tissue images, FIG. 20): strong inflammatory responses occur in the heart and kidney

CCNC(=O)[C@@H]1CCCN1C(=O)[C@H](CCCNC(=N)N)NC(=O)[C@H](CC(C)C)NC(=O)[C@@H](CC(C)C)NC(=O)[C@H](Cc1ccc(O)cc1)NC(=O)[C@H](CO)NC(=O)[C@H](Cc1c[nH]c2ccccc12)NC(=O)[C@H](Cc1c[nH]cn1)NC(=O)[C@@H]1CCC(=O)N1 [Leuprolide]
bioavailability compared to the subcutaneous route [3]: 50%

COC(=O)c1ccc2c(c1)NC(=O)/C2=C(\Nc1ccc(N(C)C(=O)CN2CCN(C)CC2)cc1)c1ccccc1 [Nib, nintedanib]
inflammatory response and fibrous mass (histopathology) [4]: an inflammatory response is shown and the formation of a dense fibrous mass is shown

Cc1ccc(=O)n(-c2ccccc2)c1 [pirfenidone]
bioavailability [5]: 4.7%
